# Measured values from article PMC4603705, “A bioinspired peptide scaffold with high antibiotic activity and low in vivo toxicity” (Scientific Reports, 2015).
# Bridge positions count the residues as written; N and C are the ends. Square brackets hold non-standard residues; d marks the D form. Peptide text beside a SMILES is read from it. * marks the point of attachment. X1 = CC[C@H](C)CCCCC(=O)*; Dab = NCC[C@H](N)C(=O)O
# Key:
# [1] = tested on: E. coli
# Description: (§1) Strains of E. coli and P. aeruginosa with resistance to quinolones and carbapenems as well as multi-drug-resistant bacteria were tested.
# (§2) MICs were measured after 18–20 h of incubation in sterile 96-well plates (Corning Costar 3598 microtiter plates) in Mueller Hinton Broth (MHB) culture medium, (Difco, USA), according to well known in vitro protocols. Bacterial strains in Table 1 were: P. aeruginosa ATTC 9027, E. coli ATTC 8739, S. aureus ATTC 6538, and E. faecalis ATTC 29212. MICs shown in table 4 were performed by Mary Conrad at Cubist Pharmaceuticals (Lexington, MA) in non-binding surface plates.
# [2] = tested on: P. aeruginosa
# Description: as §1, §2
# [3] = tested on: P. aeruginosa ATTC 9027; type: cell-based, Pseudomonas aeruginosa; settings: P. aeruginosa ATTC 9027; Mueller Hinton Broth, 18–20 h
# Description: as §2
# [4] = tested on: E. coli (ATCC 25922); experiment: Reduction of viability by plate count, E. coli; type: cell-based, Escherichia coli; settings: 0.5 μg/mL
# Description: (§3) An overnight culture (12 to 16 h) of S. aureus (ATCC 29213) or E. coli (ATCC 25922) in Tryptic Soy Broth (TSB) was grown at 37 °C and 400 μL were added in 50 mL of tryptone water (∼10^7 bacteria/mL). The bacterial suspension was split into aliquots of 4-5 mL and treated with the peptides (at the MIC) for different incubation times at room temperature. Cells were collected by centrifugation (10000 rpm, 20 min) and resuspended in 1 mL of filtered Ringer’s solution.
# [5] = tested on: CD-1 mice; settings: reported value, no reference given; cited from earlier work
# [6] = tested on: E. coli ATTC 8739; type: cell-based, Escherichia coli; settings: E. coli ATTC 8739; Mueller Hinton Broth, 18–20 h
# Description: as §2
# [7] = target: alternative NADH dehydrogenase; set-up: method as in PMID 19564154, PMID 24169795; settings: Mycobacterium smegmatis; cited from earlier work
# [8] = tested on: E. coli (ATCC 25922); experiment: Flow cytometry (PI membrane permeability, BOX membrane potential), E. coli; type: cell-based, Escherichia coli; settings: 0.5 μg/mL
# Description: The mechanism of action at the membrane level of our best candidate was studied using flow cytometry. To assess membrane permeability, a propidium iodide (PI) probe was used[43][44]. The fluorescence conferred by this probe is generally associated with cells that have lost their membrane integrity. The effect on membrane potential was evaluated with bis-(1,3-dibutylbarbituric acid) trimethine oxonol (BOX). Membrane depolarization leads to the incorporation of this anionic dye into the cell where it binds to lipid-rich intracellular compounds, resulting in an increase in fluorescence.
# as §3
# A stock solution of propidium iodide (PI, 1 mg/mL, Molecular Probes) and bis-(1,3-dibutylbarbituric acid) trimethine oxonol (BOX, 250 μM, Sigma Aldrich) was prepared in distilled water. Portions (10 μL and 2 μL, respectively) were added to aliquots of cells (100 μL of each sample in 1 mL of Ringer’s solution) to give a final concentration of 10 μg/mL of PI and 0.5 μM for BOX.
# Flow cytometric measurements were performed on a Gallios multi-colour flow cytometer instrument (Beckman Coulter, Inc, Fullerton, CA) set up with the 3-lasers 10 colors standard configuration. Excitation was done using a blue (488 nm) laser. Forward scatter (FS), side scatter (SS), green fluorescence (525/40 nm) from BOX and red fluorescence (620/30 nm) emitted by PI were collected using logarithmic scales. FS was used as the discriminating parameter. The single-cell bacterial population was selected on a forward-side scatter plot. Fluorescence was presented in a dot plot of BOX vs. PI. Three regions were defined on this graph according to the controls: depolarized, permeabilized and non-affected cells. Control cells (non-stained and single stained populations) were used to define these regions. 25,000 cells defined according to their scatter parameters were counted in each sample.
# [9] = tested on: S. aureus ATTC 6538; experiment: microbe, parasite or virus in culture; type: cell-based, Staphylococcus aureus; settings: S. aureus ATTC 6538; Mueller Hinton Broth, 18–20 h
# Description: as §2
# [10] = set-up: method as in PMID 22908162, PMID 24733472; settings: after iv administration, after 6 h; cited from earlier work
# [11] = tested on: E. coli (ATCC 25922); experiment: Transmission electron microscopy of treated E. coli; type: cell-based, Escherichia coli; settings: 120 min at 0.5 μg/mL
# Description: An overnight culture (12 to 16 h) of S. aureus (ATCC 29213) or E. coli (ATCC 25922) in Tryptic Soy Broth (TSB) was grown at 37 °C and 500 μL were added in 50 mL of tryptone water (∼10^8 bacteria/mL). […] Cells were collected by centrifugation (10000 rpm, 20 min).
# Samples were fixed with 2.5% glutaraldehyde in phosphate buffer for 2 h at 4 °C, then washed with the same buffer and post fixed with 1% osmium tetroxide in buffer containing 0.8% potassium ferricyanide at 4 °C. The samples were then dehydrated for 1 hour in acetone and infiltrated in a gradded series of Epon resin (Ted Pella Inc., USA) during 2 days, and finally embedded in fresh Epon resin and polymerised at 60 °C during 48 hours.
# Ultrathin sections were obtained using a Leica Ultracut UCT ultramicrotome (Leica, Vienna) and mounted on Formvar-coated copper grids. Sections were stained with 2% aqueous uranyl acetate and lead citrate and examined in a JEM-1010 electron microscope (Jeol, Japan).
# [12] = target: malate:quinone oxidoreductase; set-up: method as in PMID 19564154; settings: Mycobacterium smegmatis; cited from earlier work
# [13] = resistant to nalidixic acid, cotrimoxazole and ampicillin
compound,measurement,setting,value
CC[C@H](C)CCCCC(=O)N[C@@H](CCN)C(=O)N[C@H](C(=O)N[C@@H](CCN)C(=O)N[C@H]1CCNC(=O)[C@H]([C@@H](C)O)NC(=O)[C@H](CCN)NC(=O)[C@H](CCN)NC(=O)[C@H](CC(C)C)NC(=O)[C@@H](Cc2ccccc2)NC(=O)[C@H](CCN)NC1=O)[C@@H](C)O [Polymyxin B] (X1-[Dab]T[Dab][Dab][Dab][dF]L[Dab][Dab]T; lactam 4-C; N-terminus assumed),MIC E. coli NDM-1,"[1]; highly-resistant, New Delhi metallo-beta-lactamase gene",0.5 µg/mL
same,MIC E. coli VAL 5,[1]; resistant to nalidixic acid,0.25 µg/mL
same,MIC E. coli MAC 21a,[1]; [13],0.25 µg/mL
same,MIC E. coli VAL 10,[1]; [13],0.25 µg/mL
same,MIC P. aeruginosa 38a,"[2]; resistant to ceftazidime, ciprofloxacin, imipenem, piperacillin-tazobactam",1 µg/mL
same,MIC P. aeruginosa 40b,[2]; resistant to imipenem,2 µg/mL
same,MIC P. aeruginosa,[3],2 µg/mL
same,% viability reduction,[4]; 5 min,0%
same,% viability reduction,[4]; 10 min,20%
same,% viability reduction,[4]; 15 min,34%
same,% viability reduction,[4]; 30 min,65%
same,% viability reduction,[4]; 60 min,87%
same,% viability reduction,[4]; 120 min,98%
same,LD50 reported for subcutaneous administration,[5],59.5 mg/kg
same,MIC E. coli,[6],1 µg/mL
same,IC50 alternative NADH dehydrogenase,[7],1.6 µg/mL
same,% of stained cells PI,[8]; 5 min,11%
same,% of stained cells BOX,[8]; 10 min,35%
same,% of stained cells PI,[8]; 10 min,20%
same,% of stained cells BOX,[8]; 15 min,17%
same,% of stained cells PI,[8]; 15 min,60%
same,% of stained cells BOX,[8]; 30 min,13%
same,% of stained cells PI,[8]; 30 min,68%
same,% of stained cells BOX,[8]; 60 min,23%
same,% of stained cells PI,[8]; 60 min,57%
same,% of stained cells BOX,[8]; 120 min,17%
same,MIC S. aureus,[9],>32 µg/mL
same,kidney concentration relative to serum concentration,[10],more than 30 times
same,Effect on cell morphology (TEM),[11],numerous protrusions were observed at the outer cell membrane and even some completely lysed membranes
same,IC50 malate:quinone oxidoreductase,[12],4.3 µg/mL
